# Values of other authors as cited in patent US10716771B2, “Pharmaceutical composition for preventing or treating immune diseases or inflammatory diseases, containing biguanide derivative compound as active ingredient” (THE CATHOLIC UNIVERSITY OF KOREA INDUSTRY-ACADEMIC …, priority 2013, dated 2020).
# Test system: TNF-α
# Conditions: stated as known; cited from earlier work
compound,measurement,value
CN(C)C(=N)N=C(N)N [Metformin],effect of blocking TNF-α,slight effect
